Converted amounts (≈) assume the structure as drawn.
Assays:
[1] = system: Anas platyrhynchos; settings: short-term; oral; feed; mortality
[2] = system: Apis mellifera; settings: acute; duration: 48 hours; oral; unspecified; mortality
[3] = system: Canidae; settings: oral, Dog Other, hematological
[4] = system: Colinus virginianus
[5] = system: Daphnia magna; settings: chronic/long-term; duration: 21 days; reproduction
[6] = system: Oncorhynchus mykiss
[7] = system: Rattus norvegicus
[8] = system: Tagia sp.; settings: acute; mortality
[9] = system: Typhlodromus pyri; settings: not reported; mortality

CCSC(C)CC1CC(=O)C(C(CC)=NOC/C=C/Cl)=C(O)C1 (stereo not drawn) [Clethodim]
LC50 [1]: > 851 mg/kg-day
LD50 [2]: > 43 µg/piece
NOAEL ([3]; chronic, duration: 1 years): 21 mg/kg-day
NOAEL ([3]; subchronic, duration: 90 days): 21 mg/kg-day
LD50 ([4]; acute, oral, mortality): > 1640 mg/kg
NOEL ([4]; reproduction developmental, reproduction): 17 mg/kg-day
NOEC [5]: 49 mg/L
LC50 ([6]; acute, duration: 96 hours, mortality): 25 mg/L (≈ 69.5 µM)
NOEC ([6]; chronic/long-term, duration: 21 days): 3.9 mg/L
LD50 ([7]; acute, oral, mortality): 1130 mg/kg
NOAEL ([7]; chronic, duration: 2 years, organ weight): 16 mg/kg-day
LC50 [8]: 129 mg/kg
LEL [9]: 9.6 g/ha

— EPA's ToxValDB 9.5 (doi:10.2903/j.efsa.2010.1771)
